Here are results for 61 compounds from patent US20230123334A1, “AMINO LIPID COMPOUND, PREPARATION METHOD THEREFOR, AND APPLICATION THEREOF” (SHENZHEN SHENXIN BIOTECHNOLOGY CO., LTD., priority 2020, published 2023).

The test system of the test is HEK293 cells. The test is described as follows: Preliminary screening as mRNA vectors, EGFP mRNA transfection of HEK293 cells. Type of test: cell-based. The note with it: EGFP mRNA 50 ng per well, 96-well plates; percentage of GFP fluorescent cells relative to total number of cells (Hoechst). The method, boiled down: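 Each well of HEK293 cells received 50 ng of EGFP mRNA. Efficiency was expressed as percent GFP-expressing cells over Hoechst-defined total cell number.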

The structures appear in SMILES notation.

Regarding `CCCCCCCSc1nc(NCCCN2CCN(C)CC2)nc(SCCCCCCC)n1` [Compound D9S7S7], the “Absolute mRNA transfection efficiency in HEK293 cells” value (shortened to “Absolute mRNA transfection efficiency”) was determined as 18.3%.

For the compound `CCCCCCCCSc1nc(NCCCN2CCN(C)CC2)nc(SCCCCCCC)n1` [Compound D9S7S8], the “Absolute mRNA transfection efficiency” value amounted to 43.7%.

For the compound `CCCCCCCCCSc1nc(NCCCN2CCN(C)CC2)nc(SCCCCCCC)n1` [Compound D9S7S9], the “Absolute mRNA transfection efficiency” value is listed as 35.3%.

Take `CCCCCCCCCCSc1nc(NCCCN2CCN(C)CC2)nc(SCCCCCCC)n1` [Compound D9S7S10]: the “Absolute mRNA transfection efficiency” value is 47.1%.

Turning to `CCCCCCCCCCCSc1nc(NCCCN2CCN(C)CC2)nc(SCCCCCCC)n1` [Compound D9S7S11], the “Absolute mRNA transfection efficiency” value turned out to be 80.0%.

With `CCCCCCCCCCCCSc1nc(NCCCN2CCN(C)CC2)nc(SCCCCCCC)n1` [Compound D9S7S12], the “Absolute mRNA transfection efficiency” value is recorded as 26.4%.

With `CCCCCCCCCCCCCCSc1nc(NCCCN2CCN(C)CC2)nc(SCCCCCCC)n1` [Compound D9S7S14], the “Absolute mRNA transfection efficiency” value turned out to be 34.5%.

In the case of `CCCCCCCCCCCCCCCSc1nc(NCCCN2CCN(C)CC2)nc(SCCCCCCC)n1` [Compound D9S7S15], the “Absolute mRNA transfection efficiency” value came to 9.6%.

For `CCCCCCCCCCCCCCCCSc1nc(NCCCN2CCN(C)CC2)nc(SCCCCCCC)n1` [Compound D9S7S16], the “Absolute mRNA transfection efficiency” value was 9.2%.

For the compound `CCCCCCCCCCCCCCCCCCSc1nc(NCCCN2CCN(C)CC2)nc(SCCCCCCC)n1` [Compound D9S7S18], the “Absolute mRNA transfection efficiency” value was found to be 34.3%.

Regarding `CCCCCCCCSc1nc(NCCCCCC)nc(NCCCN2CCN(C)CC2)n1` [Compound D9S8N6], the “Absolute mRNA transfection efficiency” value is 0.7%.

As for `CCCCCCCCSc1nc(NCCCCCCC)nc(NCCCN2CCN(C)CC2)n1` [Compound D9S8N7], the “Absolute mRNA transfection efficiency” value was 1.4%.

In the case of `CCCCCCCCNc1nc(NCCCN2CCN(C)CC2)nc(SCCCCCCCC)n1` [Compound D9S8N8], the “Absolute mRNA transfection efficiency” value was found to be 4.5%.

On to `CCCCCCCCCNc1nc(NCCCN2CCN(C)CC2)nc(SCCCCCCCC)n1` [Compound D9S8N9], for which the “Absolute mRNA transfection efficiency” value is recorded as 57.0%.

For `CCCCCCCCCCCNc1nc(NCCCN2CCN(C)CC2)nc(SCCCCCCCC)n1` [Compound D9S8N11], the “Absolute mRNA transfection efficiency” value is given as 81.7%.

With `CCCCCCCCCCCCNc1nc(NCCCN2CCN(C)CC2)nc(SCCCCCCCC)n1` [Compound D9S8N12], the “Absolute mRNA transfection efficiency” value is recorded as 57.6%.

Take `CCCCCCCCCCCCCNc1nc(NCCCN2CCN(C)CC2)nc(SCCCCCCCC)n1` [Compound D9S8N13]: the “Absolute mRNA transfection efficiency” value stood at 46.5%.

Turning to `CCCCCCCCCCCCCCCNc1nc(NCCCN2CCN(C)CC2)nc(SCCCCCCCC)n1` [Compound D9S8N15], the “Absolute mRNA transfection efficiency” value was 37.8%.

`CCCCCCCCCCCCCCCCNc1nc(NCCCN2CCN(C)CC2)nc(SCCCCCCCC)n1` [Compound D9S8N16]: the “Absolute mRNA transfection efficiency” value was determined as 21.2%.

On to `CCCCCCCCCCCCCCCCCCNc1nc(NCCCN2CCN(C)CC2)nc(SCCCCCCCC)n1` [Compound D9S8N18], for which the “Absolute mRNA transfection efficiency” value turned out to be 29.4%.

Take `CCCCCCCCSc1nc(NCCCN2CCN(C)CC2)nc(SCCCCCCCC)n1` [Compound D9S8S8]: the “Absolute mRNA transfection efficiency” value is 53.3%.

Regarding `CCCCCCCCCSc1nc(NCCCN2CCN(C)CC2)nc(SCCCCCCCC)n1` [Compound D9S8S9], the “Absolute mRNA transfection efficiency” value came out at 85.2%.

In the case of `CCCCCCCCCCSc1nc(NCCCN2CCN(C)CC2)nc(SCCCCCCCC)n1` [Compound D9S8S10], the “Absolute mRNA transfection efficiency” value is 79.4%.

On to `CCCCCCCCCCCSc1nc(NCCCN2CCN(C)CC2)nc(SCCCCCCCC)n1` [Compound D9S8S11], for which the “Absolute mRNA transfection efficiency” value came to 97.6%.

For `CCCCCCCCCCCCSc1nc(NCCCN2CCN(C)CC2)nc(SCCCCCCCC)n1` [Compound D9S8S12], the “Absolute mRNA transfection efficiency” value worked out at 23.6%.

On to `CCCCCCCCCSc1nc(NCCCCCC)nc(NCCCN2CCN(C)CC2)n1` [Compound D9S9N6], for which the “Absolute mRNA transfection efficiency” value is 1.8%.

Regarding `CCCCCCCCCSc1nc(NCCCCCCC)nc(NCCCN2CCN(C)CC2)n1` [Compound D9S9N7], the “Absolute mRNA transfection efficiency” value is given as 2.8%.

For the compound `CCCCCCCCCSc1nc(NCCCCCCCC)nc(NCCCN2CCN(C)CC2)n1` [Compound D9S9N8], the “Absolute mRNA transfection efficiency” value turned out to be 9.2%.

As to `CCCCCCCCCNc1nc(NCCCN2CCN(C)CC2)nc(SCCCCCCCCC)n1` [Compound D9S9N9], the “Absolute mRNA transfection efficiency” value was 76.1%.

Turning to `CCCCCCCCCCCNc1nc(NCCCN2CCN(C)CC2)nc(SCCCCCCCCC)n1` [Compound D9S9N11], the “Absolute mRNA transfection efficiency” value worked out at 49.2%.

With `CCCCCCCCCCCCNc1nc(NCCCN2CCN(C)CC2)nc(SCCCCCCCCC)n1` [Compound D9S9N12], the “Absolute mRNA transfection efficiency” value is 36.0%.

Turning to `CCCCCCCCCCCCCNc1nc(NCCCN2CCN(C)CC2)nc(SCCCCCCCCC)n1` [Compound D9S9N13], the “Absolute mRNA transfection efficiency” value worked out at 20.0%.

Take `CCCCCCCCCCCCCCCNc1nc(NCCCN2CCN(C)CC2)nc(SCCCCCCCCC)n1` [Compound D9S9N15]: the “Absolute mRNA transfection efficiency” value was determined as 6.3%.

With `CCCCCCCCCCCCCCCCNc1nc(NCCCN2CCN(C)CC2)nc(SCCCCCCCCC)n1` [Compound D9S9N16], the “Absolute mRNA transfection efficiency” value is listed as 16.7%.

Turning to `CCCCCCCCCCCCCCCCCCNc1nc(NCCCN2CCN(C)CC2)nc(SCCCCCCCCC)n1` [Compound D9S9N18], the “Absolute mRNA transfection efficiency” value is 14.5%.

Regarding `CCCCCCCCCCSc1nc(NCCCCCC)nc(NCCCN2CCN(C)CC2)n1` [Compound D9S10N6], the “Absolute mRNA transfection efficiency” value was determined as 1.1%.

For the compound `CCCCCCCCCCSc1nc(NCCCCCCC)nc(NCCCN2CCN(C)CC2)n1` [Compound D9S10N7], the “Absolute mRNA transfection efficiency” value is listed as 0.8%.

On to `CCCCCCCCCCSc1nc(NCCCCCCCC)nc(NCCCN2CCN(C)CC2)n1` [Compound D9S10N8], for which the “Absolute mRNA transfection efficiency” value is 5.4%.

With `CCCCCCCCCCSc1nc(NCCCCCCCCC)nc(NCCCN2CCN(C)CC2)n1` [Compound D9S10N9], the “Absolute mRNA transfection efficiency” value was found to be 10.5%.

On to `CCCCCCCCCCCNc1nc(NCCCN2CCN(C)CC2)nc(SCCCCCCCCCC)n1` [Compound D9S10N11], for which the “Absolute mRNA transfection efficiency” value came to 11.3%.

Regarding `CCCCCCCCCCCCNc1nc(NCCCN2CCN(C)CC2)nc(SCCCCCCCCCC)n1` [Compound D9S10N12], the “Absolute mRNA transfection efficiency” value amounted to 6.0%.

On to `CCCCCCCCCCCCCNc1nc(NCCCN2CCN(C)CC2)nc(SCCCCCCCCCC)n1` [Compound D9S10N13], for which the “Absolute mRNA transfection efficiency” value worked out at 2.7%.

Regarding `CCCCCCCCCCCCCCCNc1nc(NCCCN2CCN(C)CC2)nc(SCCCCCCCCCC)n1` [Compound D9S10N15], the “Absolute mRNA transfection efficiency” value was determined as 5.4%.

Regarding `CCCCCCCCCCCCCCCCNc1nc(NCCCN2CCN(C)CC2)nc(SCCCCCCCCCC)n1` [Compound D9S10N16], the “Absolute mRNA transfection efficiency” value is 13.6%.

In the case of `CCCCCCCCCCCCCCCCCCNc1nc(NCCCN2CCN(C)CC2)nc(SCCCCCCCCCC)n1` [Compound D9S10N18], the “Absolute mRNA transfection efficiency” value is reported as 9.0%.

As to `CCCCCCCCCCCSc1nc(NCCCCCC)nc(NCCCN2CCN(C)CC2)n1` [Compound D9S11N6], the “Absolute mRNA transfection efficiency” value is 12.2%.

Regarding `CCCCCCCCCCCSc1nc(NCCCCCCC)nc(NCCCN2CCN(C)CC2)n1` [Compound D9S11N7], the “Absolute mRNA transfection efficiency” value is recorded as 10.5%.

Take `CCCCCCCCCCCSc1nc(NCCCCCCCC)nc(NCCCN2CCN(C)CC2)n1` [Compound D9S11N8]: the “Absolute mRNA transfection efficiency” value was found to be 37.6%.

Take `CCCCCCCCCCCSc1nc(NCCCCCCCCC)nc(NCCCN2CCN(C)CC2)n1` [Compound D9S11N9]: the “Absolute mRNA transfection efficiency” value came out at 60.3%.

As to `CCCCCCCCCCCNc1nc(NCCCN2CCN(C)CC2)nc(SCCCCCCCCCCC)n1` [Compound D9S11N11], the “Absolute mRNA transfection efficiency” value came to 24.5%.

`CCCCCCCCCCCCNc1nc(NCCCN2CCN(C)CC2)nc(SCCCCCCCCCCC)n1` [Compound D9S11N12]: the “Absolute mRNA transfection efficiency” value was found to be 21.7%.

In the case of `CCCCCCCCCCCCCNc1nc(NCCCN2CCN(C)CC2)nc(SCCCCCCCCCCC)n1` [Compound D9S11N13], the “Absolute mRNA transfection efficiency” value was 9.4%.

Regarding `CCCCCCCCCCCCCCCNc1nc(NCCCN2CCN(C)CC2)nc(SCCCCCCCCCCC)n1` [Compound D9S11N15], the “Absolute mRNA transfection efficiency” value is recorded as 15.7%.

In the case of `CCCCCCCCCCCCCCCCNc1nc(NCCCN2CCN(C)CC2)nc(SCCCCCCCCCCC)n1` [Compound D9S11N16], the “Absolute mRNA transfection efficiency” value is reported as 3.9%.

With `CCCCCCCCCCCCCCCCCCNc1nc(NCCCN2CCN(C)CC2)nc(SCCCCCCCCCCC)n1` [Compound D9S11N18], the “Absolute mRNA transfection efficiency” value turned out to be 14.9%.

As to `CCCCCCCCCCCCSc1nc(NCCCCCC)nc(NCCCN2CCN(C)CC2)n1` [Compound D9S12N6], the “Absolute mRNA transfection efficiency” value worked out at 0.2%.

As for `CCCCCCCCCCCCSc1nc(NCCCCCCC)nc(NCCCN2CCN(C)CC2)n1` [Compound D9S12N7], the “Absolute mRNA transfection efficiency” value stood at 0.6%.

For `CCCCCCCCCCCCSc1nc(NCCCCCCCC)nc(NCCCN2CCN(C)CC2)n1` [Compound D9S12N8], the “Absolute mRNA transfection efficiency” value is 20.1%.

As for `CCCCCCCCCCCCSc1nc(NCCCCCCCCC)nc(NCCCN2CCN(C)CC2)n1` [Compound D9S12N9], the “Absolute mRNA transfection efficiency” value is 25.6%.

For `CCCCCCCCCCCCSc1nc(NCCCCCCCCCCC)nc(NCCCN2CCN(C)CC2)n1` [Compound D9S12N11], the “Absolute mRNA transfection efficiency” value is 3.3%.

Consider `CCCCCCCCCCCCNc1nc(NCCCN2CCN(C)CC2)nc(SCCCCCCCCCCCC)n1` [Compound D9S12N12], for which the “Absolute mRNA transfection efficiency” value turned out to be 0.9%.
